Test results: patent US6528510B1, “HIV protease inhibitors” (Warner-Lambert Company, priority 1998, dated 2003)
Where two headings read alike, the source gives them in different places.

Legend:
[1] = Cellular toxicity in uninfected CEM cells, XTT (TC50); details: human, uninfected CEM cells (lymphocyte derived)
Protocol: (§1) Compound concentrations were 0.32, 1, 3.2, 10, 32, and 100 uM.

[2] = target: T1, Recombinant HIV-1 protease (Human immunodeficiency virus type 1 group M subtype B, UniProt P04585); assay: HIV protease assay (Ki determination, HPLC readout of substrate III cleavage); assay type: biochemical
T1 construct: Recombinant HIV-1 protease (>96% purity); purchased Bachem Bioscience, Inc. (King of Prussia, Pa.)
Protocol: Recombinant HIV-1 protease (>96% purity) and HIV protease substrate III (the undecapeptide H-His-Lys-Ala-Arg-Val-Leu-Nph-Glu-Ala-Nle-Ser-NH2, 97% purity) were purchased from Bachem Bioscience, Inc. (King of Prussia, Pa.).
The methods employed follow the procedures of Tummino, et al., Archives of Biochemistry and Biophysics, 1995;316:523). […] (total volume, […]). […] The final inhibitor concentrations used were 0 (0.1, 0.2, in some experiments), 0.5, 1, 2, 5, 10, 20, 50, and 100 μM. The solution was mixed, incubated for 5 minutes and the reaction quenched by addition of trifluoracetic acid, 2% final. The (leu-p-nitro-phe) bond of the substrate is cleaved by the enzyme and substrate arid products separated by reverse-phase HPLC. Absorbance was measured at 220 nm, peak areas determined, and percentage conversion to product used to calculate percentage control (=[% conversion (+inhibitor)/% conversion (−inhibitor)]×100).

[3] = system: HIV infected lymphocyte derived CEM cells; assay: Cellular infection assay in CEM cells, XTT cytopathic procedure (EC50); details: for TI (therapeutic index, TC50/EC50): CEM cells; for EC50: Human immunodeficiency virus 1, CCRF-CEM, read-out: Antiviral Efficacy EC50
Protocol: as §1

[4] = recombinant HIV-1 protease, read-out: Inhib of HIV Protease KI

| SMILES | CC50 [1] [nM] | Ki [2] [nM] | TI (therapeutic index, TC50/EC50) [3] | EC50 [3] [nM] | Ki [2, 4] [nM] |
| --- | --- | --- | --- | --- | --- |
| Cc1cnc(CCC2(C(C)C)CC(O)=C(Sc3cc(C)c(CO)cc3C(C)(C)C)C(=O)O2)s1 (racemic) [Example 28, 3-(2-tert-Butyl-4-hydroxymethyl-5-methyl-phenylsulfanyl)-4-hydroxy-6-isopropyl-6-[2-(5-methyl-thiazol-2-yl)-ethyl]-5,6-dihydro-pyran-2-one] | 229000 | 0.24 | 120 | 1900 | – |
| Cc1cc(SC2=C(O)CC(CCc3csc(C(C)C)n3)(C(C)C)OC2=O)c(C(C)(C)C)cc1CO (racemic) [Example 32, 3-(2-tert-Butyl-4-hydroxymethyl-5-methyl-phenylsulfanyl)-4-hydroxy-6-isopropyl-6-[2-(2-isopropyl-thiazol-4-yl)-ethyl]-5,6-dihydro-pyran-2-one] | 91000 | 1.6 | 4 | 23000 | – |
| Cc1cc(SC2=C(O)CC(CCc3scnc3C(C)C)(C(C)C)OC2=O)c(C(C)(C)C)cc1CO (racemic) [Example 33, 3-(2-tert-Butyl-4-hydroxymethyl-5-methyl-phenylsulfanyl)-4-hydroxy-6-isopropyl-6-[2-(4-isopropyl-thiazol-5-yl)-ethyl]-5,6-dihydro-pyran-2-one] | 101000 | – | 72 | 1400 | – |
| Cc1cc(SC2=C(O)CC(CCc3ccsc3)(C(C)C)OC2=O)c(C(C)(C)C)cc1N (racemic) [Example 35, 3-(4-Amino-2-tert-butyl-5-methyl-phenylsulfanyl)-4-hydroxy-6-isopropyl-6-(2-thiophen-3-yl-ethyl)-5,6-dihydro-pyran-2-one] | 72000 | 0.88 | 48 | 1500 | – |
| Cc1cc(SC2=C(O)CC(CCc3ccc(CO)s3)(C(C)C)OC2=O)c(C(C)(C)C)cc1O (racemic) [Example 37, 3-(2-tert-Butyl-4-hydroxy-5-methyl-phenylsulfanyl)-4-hydroxy-6-[2-(5-hydroxymethyl-thiophen-2-yl)-ethyl]-6-isopropyl-5,6-dihydro-pyran-2-one] | 100000 | 0.37 | 24 | 4200 | – |
| Cc1cc(SC2=C(O)CC(CCc3ccc(CO)s3)(C(C)C)OC2=O)c(C(C)(C)C)cc1N (racemic) [Example 38, 3-(4-Amino-2-tert-butyl-5-methyl-phenylsulfanyl)-4-hydroxy-6-[2-(5-hydroxymethyl-thiophen-2-yl)-ethyl]-6-isopropyl-5,6-dihydro-pyran-2-one] | 124000 | 0.33 | 113 | 1100 | – |
| Cc1cc(SC2=C(O)CC(CCc3cc[nH]n3)(C(C)C)OC2=O)c(C(C)(C)C)cc1CO (racemic) [Example 40, 3-(2-tert-Butyl-4-hydroxymethyl-5-methyl-phenylsulfanyl)-4-hydroxy-6-isopropyl-6-[2-(1H-pyrazol-3-yl)-ethyl]-5,6-dihydro-pyran-2-one] | > 320000 | 0.28 | >57 | 5600 | – |
| Cc1cc(SC2=C(O)CC(CCc3cncnc3)(C(C)C)OC2=O)c(C(C)(C)C)cc1CO (racemic) [Example 42, 3-(2-tert-Butyl-4-hydroxymethyl-5-methyl-phenylsulfanyl)-4-hydroxy-6-isopropyl-6-(2-pyrimidin-5-yl-ethyl)-5,6-dihydro-pyran-2-one] | > 200000 | – | >159 | 1300 | – |
| Cc1ccc(C(C)(C)C)c(SC2=C(O)CC(CCc3ccc(CO)s3)(C(C)C)OC2=O)c1 (racemic) [Example 55, 3-(2-tert-Butyl-5-methyl-phenylsulfanyl)-4-hydroxy-6-[2-(5-hydroxymethyl-thiophen-2-yl)-ethyl]-6-isopropyl-5,6-dihydro-pyran-2-one] | 66000 | 1.7 | 8 | 8300 | – |
| Cc1cc(SC2=C(O)CC(CCC3CCCO3)(C(C)C)OC2=O)c(C(C)(C)C)cc1N (racemic) [Example 56, 3-(4-Amino-2-tert-butyl-5-methyl-phenylsulfanyl)-4-hydroxy-6-isopropyl-6-[2-(tetrahydro-furan-2-yl)-ethyl]-5,6-dihydro-pyran-2-one] | 210000 | 11 | 21 | 10000 | – |
| Cc1cc(SC2=C(O)CC(CCc3ccsc3)(C(C)C)OC2=O)c(C(C)(C)C)cc1NS(=O)(=O)c1ccc(C(F)(F)F)cn1 (racemic) [Example 59, 5-Trifluoromethyl-pyridine-2-sulfonic acid {5-tert-butyl-4-[4-hydroxy-6-isopropyl-2-oxo-6-(2-thiophen-3-yl-ethyl)-5,6-dihydro-2H-pyran-3-ylsulfanyl]-2-methyl-phenyl}-amide] | 66000 | 0.08 | 110 | 600 | – |
| Cc1cc(SC2=C(O)CC(CCc3ccc4[nH]ccc4c3)(C(C)C)OC2=O)c(C(C)(C)C)cc1CO (racemic) [Example 61, 3-(2-tert-Butyl-4-hydroxymethyl-5-methyl-phenylsulfanyl)-4-hydroxy-6-[2-(1H-indol-5-yl)-ethyl]-6-isopropyl-5,6-dihydro-pyran-2-one] | 46000 | 0.98 | 68 | 680 | – |
| Cc1cc(SC2=C(O)CC(CCc3sccc3C)(C(C)C)OC2=O)c(C(C)(C)C)cc1N (racemic) [Example 65, 3-(4-Amino-2-tert-butyl-5-methyl-phenylsulfanyl)-4-hydroxy-6-isopropyl-6-[2-(3-methyl-thiophen-2-yl)-ethyl]-5,6-dihydro-pyran-2-one] | 60000 | 1.2 | 54 | 1100 | – |
| CC(C)C1(CCc2ccsc2)CC(O)=C(Sc2cc3sc(N)nc3cc2C(C)(C)C)C(=O)O1 (racemic) [Example 82] | 76000 | 1.1 | 109 | 700 | – |
| Cc1c(F)cccc1CCC1(C(C)C)CC(O)=C(Sc2cc3sc(N)nc3cc2C(C)(C)C)C(=O)O1 (racemic) [Example 84, 3-(2-Amino-5-tert-butyl-benzothiazol-6-ylsulfanyl)-6-[2-(3-fluoro-2-methyl-phenyl)-ethyl]-4-hydroxy-6-isopropyl-5,6-dihydro-pyran-2-one] | 93000 | 0.8 | 198 | 470 | – |
| Cc1cc(SC2=C(O)CC(CCc3csc(N)n3)(C(C)C)OC2=O)c(C(C)(C)C)cc1CO (racemic) [Example 89, 6-[2-(2-Amino-thiazol-4-yl)-ethyl]-3-(2-tert-butyl-4-hydroxymethyl-5-methyl-phenylsulfanyl)-4-hydroxy-6-isopropyl-5,6-dihydro-pyran-2-one] | > 200000 | 0.95 | >57 | 3500 | – |
| Cc1cc(SC2=C(O)CC(CCc3ccncc3)(C(C)C)OC2=O)c(C(C)(C)C)cc1CO (stereo not shown) [Example 1, 3-(2-tert-Butyl-4-hydroxymethyl-5-methyl-phenylsulfanyl)-4-hydroxy-6-isopropyl-6-(2-pyridin-4-yl-ethyl)-5,6-dihydro-pyran-2-one] | 296000 | – | 197 | 1500 | 1.5 |
| Cc1cc(SC2=C(O)CC(CCc3cccnc3)(C(C)C)OC2=O)c(C(C)(C)C)cc1CO (stereo not shown) [Example 2, 3-(2-tert-Butyl-4-hydroxymethyl-5-methyl-phenylsulfanyl)4-hydroxy-6-isopropyl-6-(2-pyridin-3-yl-ethyl)-5,6-dihydro-pyran-2-one] | – | – | – | – | 0.9 |
| Cc1cc(SC2=C(O)C[C@@](CCc3ccccc3)(C(C)C)OC2=O)c(C(C)C)c2sc(N)nc12 [Example 17, (S)-3-(2-Amino-7-isopropyl-4-methyl-benzothiazol-6-yl-sulfanyl)-4-hydroxy-6-isopropyl-6-phenethyl-5,6-dihydro-pyran-2-one] | 42000 | – | 16 | 2700 | – |
| Cc1cc(SC2=C(O)C[C@@](CCc3ccc(O)cc3)(C(C)C)OC2=O)c(C(C)C)c2sc(N)nc12 [Example 18, (S)-3-(2-Amino-7-isopropyl-4-methyl-benzothiazol-6-ylsulfanyl)-4-hydroxy-6-[2-(4-hydroxyl-phenyl)-ethyl]-6-isopropyl-5,6-dihydro-pyran-2-one] | 117000 | – | 105 | 1100 | – |
| Cc1cc(SC2=C(O)CC(CCc3scnc3C)(C(C)C)OC2=O)c(C(C)(C)C)cc1CO (stereo not shown) [Example 24, 3-(2-tert-Butyl-4-hydroxymethyl-5-methyl-phenylsulfanyl)-4-hydroxy-6-isopropyl-6-[2-(4-methyl-thiazol-5-yl)-ethyl]-5,6-dihydro-pyran-2-one] | 164000 | – | 443 | 370 | – |
